Patent US20070078179A1, “Use of a fibrate and orlistat for the treatment of obesity” (Foumier Laboratories Ireland Limited, priority 2003, published 2007)

Assay: Effect of fenofibrate and orlistat co-administration on body weight of mice fed a high-fat diet
Format: in vivo
Conditions: for Gain: body weight gain over 6 weeks, * p<0.05 relative to Group 5 (standard diet); for Gain / Body weight after 6 weeks: mice fed with high-fat diet, drug p.o. mixed with the diet (fenofibrate 25 mg/kg, orlistat 2.5 mg/kg), mean±sem; for Body weight after 6 weeks: in g (unit assumed)
Experimental: This study was designed to evaluate the effects of using a combination of fenofibrate and orlistat on body weight. Method Animals: Mice weighing approximately 20 g were received from CERJ. They were put into individual cages in a temperature-, humidity- and light-controlled room (21-23° C., 12-12 h light-dark cycle). […] After acclimatization, they were randomized into groups of 20 animals, based on body weight. The experimental groups were: • a Group 1: mice fed with high-fat diet • Group 2: mice fed with high-fat diet, treated with fenofibrate 25 mg/kg p.o., mixed with the diet • Group 3: mice fed with high-fat diet, treated with orlistat 2.5 mg/kg p.o., mixed with the diet • Group 4: mice fed with high-fat diet, treated with fenofibrate 25 mg/kg p.o. and orlistat 2.5 mg/kg p.o., mixed with the diet • Group 5: mice fed with standard diet Statistics: All data are presented as mean±sem. Results were subjected to Dunnett's t test. A p<0.05 was considered significant.

SMILES: CCCCCCCCCCC[C@@H](C[C@@H]1OC(=O)[C@H]1CCCCCC)OC(=O)[C@H](CC(C)C)NC=O (relative stereo) [orlistat, [2S-[2α(R*),3β]]-N-formyl-L-leucine 1-[(3-hexyl-4-oxo-2-oxetanyl)methyl]dodecyl ester]
- Difference from mice with a standard diet (normalization of the body weight) (after 6 weeks of treatment, mice with a high-fat diet compared with mice with a standard diet, Dunnett's t test): significant difference
- Gain: 7.59 ± 0.28*
- Body weight after 6 weeks: 27.12 ± 0.39

SMILES: CC(C)OC(=O)C(C)(C)Oc1ccc(C(=O)c2ccc(Cl)cc2)cc1 [fenofibrate]
- Gain: 7.60 ± 0.43*
- Body weight after 6 weeks: 27.25 ± 0.47
